Holding throughout (assay): NCI-60 cell line screen, 48 h
Assay [1] concerns HOP-62 NSCLC.
The subject of assay [2] is HOP-92 NSCLC.
Assay [3] deals with SK-MEL-28 melanoma.
The test system of assay [4] is MOLT-4 leukemia.
The subject of assay [5] is SK-MEL-5 melanoma.
Assay [6] has as its system NCI-H23 lung.
The subject of assay [7] is CAKI-1 renal.
For assay [8], the system named is OVCAR-8 ovarian.
Assay [9] deals with SNB-75 CNS.
In assay [10] the test system is LOX IMVI melanoma.

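In this assay, cells in 96-well plates receive the compound at five concentrations for 48 hours. Endpoints are linearly interpolated between the surrounding concentrations. GI50 = concentration required for 50% inhibition of growth. The concentration for full growth arrest is given as TGI.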

On to `CCc1ccc(/C(C)=N/NC(N)=S)cc1`, for which the TGI in assay [1], in [2], in assay [3], in [4], in assay [5] and in assay [6] was greater than 100 µM each time. Moreover, the TGI in assay [7] and in [8] was greater than 100 µM throughout.

On to `CCc1ccccc1-n1c2nc(=O)n(C)c(=O)c-2nc2ccccc21`, for which the TGI in assay [1] was greater than 100 µM; in assay [4] it was 35.4 µM; in assay [5] it was 16.8 µM; in assay [9], 28.8 µM; in assay [6] it was 18.2 µM; in [7], 49.3 µM. Also, in assay [8], the TGI turned out to be 21.6 µM.

Regarding `C[C@@]1(c2ncncc2F)NC(=O)c2cc(-c3cn[nH]c3)ccc21`, the GI50 in [1] is 18.7 µM; in assay [2] it was 22.6 µM; in [3], 11.7 µM; in assay [4], 26.5 µM; in assay [10], 8.23 µM; in assay [5], 20 µM. Besides, the GI50 in assay [9] is 4.45 µM; in assay [6], 18.7 µM; in [8] it was 26.9 µM. For the same molecule, the TGI is greater than 100 µM in [1]; 88.5 µM in [2]; 73.4 µM in assay [3]; greater than 100 µM in assay [4]; greater than 100 µM in [10]; greater than 100 µM in assay [5]. Moreover, the TGI is 40.3 µM in [9], greater than 100 µM in assay [6] and greater than 100 µM in assay [8].

As to `CS(=O)c1ccc(-c2nc(-c3ccc(F)cc3)c(-c3ccncc3)[nH]2)cc1` (stereo not drawn), the GI50 in assay [1] was greater than 100 µM; in assay [2], 28.8 µM; in assay [3] it was 17.1 µM; in assay [4], 28.3 µM; in assay [5], 20.3 µM; in assay [9] it was greater than 44.6 µM. Further, the GI50 in assay [6] was 59.2 µM; in assay [7], 21.6 µM; in assay [8] it was 29.6 µM. The TGI in assay [1] was greater than 100 µM; in [2] it was greater than 100 µM; in assay [3] it was 66.3 µM; in assay [4] it was greater than 96.4 µM; in assay [5], 50.5 µM; in assay [9], greater than 100 µM. The TGI in [6] is greater than 100 µM; in assay [7], greater than 81.9 µM; in assay [8] it was greater than 100 µM.

With `COc1ccc(NC(=O)Nc2ccc(Nc3nc(C)cc(Nc4ccc(C)cc4)n3)cc2)cc1`, the GI50 in [1] was 1.58 µM; in assay [2], 1.44 µM; in [3], 1.51 µM; in assay [4], 0.257 µM; in assay [10], 1.79 µM; in [5], 1.6 µM. Also, the GI50 in [9] is 1.53 µM. The TGI in assay [1] was found to be 3.05 µM; in [2] it was 3.11 µM; in [3], 3.14 µM; in [4], 0.75 µM; in [10], 3.35 µM; in assay [5], 2.96 µM. In [9], the TGI worked out at 3 µM.

With `CC(C)CC(CNC(Cc1ccc(Cl)cc1)C(N)=O)NC(=O)C(Cc1cnc[nH]1)NC(=O)CNC(=O)C(NC(=O)C(C)NC(=O)C(Cc1c[nH]c2ccccc12)NC(=O)C(CCC(=O)O)NC(=O)C(N)Cc1ccccc1)C(C)C` (stereo not drawn), the TGI in [1] is greater than 133 µM; in assay [2], less than 0.0133 µM; in assay [3] it was greater than 133 µM; in assay [4], greater than 133 µM; in assay [9] it was greater than 133 µM; in [6], greater than 133 µM. Moreover, the TGI in assay [7] and in assay [8] was greater than 133 µM throughout.

With `COc1cc(OC)c(OC)cc1/C=C1\C=Cc2ccccc21`, the TGI in [1] was 37.5 µM; in assay [3], 47.6 µM; in assay [4], 44.4 µM; in [10], 33.4 µM; in assay [5] it was 26.1 µM; in assay [6] it was greater than 100 µM. The molecule further had a TGI in [8] greater than 100 µM.

With `COc1cc(-c2nc(SCC(=O)Nc3ccc(C(C)=O)cc3)[nH]c(=O)c2C#N)cc(OC)c1OC`, the GI50 in [1] was 79.3 µM; in [2] it was 22.6 µM; in assay [3] it was 47.5 µM; in assay [4] it was 36.4 µM; in assay [10], 41.7 µM; in [5] it was 31.9 µM. The results for the GI50 in assay [9], in [6] and in assay [8] were 28.5 µM, greater than 100 µM and 73.7 µM, respectively. The TGI in assay [1], in assay [2], in [3], in assay [4], in [10] and in assay [5] was greater than 100 µM each time. Also, the TGI in assay [9], in assay [6] and in assay [8] was greater than 100 µM each time.

Values taken from PubChem BioAssay (NCI).
